Values after ≈ are worked out from the molar mass of the structure shown.

In data set [1] the test system is Enterobacter cloacae. Put plainly: microbe, parasite or virus in culture.
Description: Minimum inhibitory concentration in Enterobacter cloacae, DR 401108 constitutive depressed type 1 lactamase producer
The test system of data set [2] is Enterobacter cloacae. Put plainly: microbe, parasite or virus in culture. The source holds these as a separate data set.
Description: Minimum inhibitory concentration in Enterobacter cloacae, P99+ constitutive depressed type 1 lactamase producer
The subject of data set [3] is Enterobacter cloacae. Put plainly: microbe, parasite or virus in culture. The source holds these as a separate data set.
Description: Minimum inhibitory concentration in Enterobacter cloacae, I+401029 inducible type 1 lactamase producer
In data set [4] the test system is Pseudomonas aeruginosa. The data set can be described thus: microbe, parasite or virus in culture.
Description: In vitro minimum inhibitory concentration against Pseudomonas aeruginosa (PU21).
Data set [5] deals with Escherichia coli. Put plainly: microbe, parasite or virus in culture.
Description: In vitro minimum inhibitory concentration against Escherichia coli (DC0 parent organism).
In data set [6] the test system is Providencia stuartii. Put plainly: microbe, parasite or virus in culture.
Description: Minimum inhibitory concentration in Pseudomonas stuartii, DR 442049 constitutive depressed type 1 lactamase producer
The test system of data set [7] is Staphylococcus aureus. The data set can be described thus: The compound was tested for minimum inhibitory concentration in Staphylococcus aureus Oxford penicillin sensitive Staphylococcus aureus. The data set is classed as functional.
The subject of data set [8] is Citrobacter freundii. Put plainly: microbe, parasite or virus in culture.
Description: Minimum inhibitory concentration in Citrobacter freundii, I+382010 inducible type 1 lactamase producer
In data set [9] the test system is Staphylococcus aureus. Put plainly: The compound was tested for minimum inhibitory concentration in Staphylococcus aureus,147N penicillin sensitive Staphylococcus aureus. The data set is classed as functional.
Data set [10] relates to Pseudomonas aeruginosa. Put plainly: microbe, parasite or virus in culture. The source holds these as a separate data set.
Description: Minimum inhibitory concentration in Pseudomonas aeruginosa, 18S inducible type 1 lactamase producer
In data set [11] the test system is Pseudomonas aeruginosa. Put plainly: microbe, parasite or virus in culture. The source holds these as a separate data set.
Description: Minimum inhibitory concentration in Pseudomonas aeruginosa,799/61 permeability mutant
For data set [12], the system named is Providencia stuartii. The data set can be described thus: microbe, parasite or virus in culture. This is another data set of the same source.
Description: Minimum inhibitory concentration in Pseudomonas stuartii, I+442019 inducible type 1 lactamase producer
Data set [13] relates to Escherichia coli. The data set can be described thus: microbe, parasite or virus in culture. The source holds these as a separate data set.
Description: In vitro minimum inhibitory concentration against Escherichia coli (DC2 permeability mutant).
For data set [14], the system named is Pseudomonas aeruginosa. Put plainly: microbe, parasite or virus in culture. The source holds these as a separate data set.
Description: Minimum inhibitory concentration in Pseudomonas aeruginosa,799WT parent organism
Data set [15] relates to Citrobacter freundii. Put plainly: microbe, parasite or virus in culture. This is another data set of the same source.
Description: Minimum inhibitory concentration in Citrobacter freundii, DR 382031 constitutive depressed type 1
Data set [16] relates to Pseudomonas aeruginosa. The data set can be described thus: microbe, parasite or virus in culture. The source holds these as a separate data set.
Description: Minimum inhibitory concentration in Pseudomonas aeruginosa, 18SH constitutive depressed type 1 lactamase producer
The subject of data set [17] is Enterobacter cloacae. The data set can be described thus: microbe, parasite or virus in culture. The source holds these as a separate data set.
Description: Minimum inhibitory concentration in Enterobacter cloacae, P99- inducible type 1 lactamase producer
Data set [18] concerns Staphylococcus aureus. The data set can be described thus: microbe, parasite or virus in culture.
Data set [19] relates to Staphylococcus aureus. Put plainly: microbe, parasite or virus in culture. The source holds these as a separate data set.
Data set [20] deals with Pseudomonas aeruginosa. Put plainly: The compound was tested for minimum inhibitory concentration in Pseudomonas aeruginosa,799WT parent organism. The data set is classed as functional.
For data set [21], the system named is Pseudomonas aeruginosa. Put plainly: The compound was tested for minimum inhibitory concentration in Pseudomonas aeruginosa,799/61 permeability mutant. The data set is classed as functional.
Data set [22] is described as follows: The compound was evaluated for area under the curve in marmosets. The note with it: callithrix, in vivo. The data set is classed as ADME.
The nature of data set [23]: The half life period in marmosets. The class given is ADME. The note with it: callithrix, in vivo.

Description for physchem: The dissociation constant of compound was tested for beta-Lactamase stability

For `CC(C)(O/N=C(\C(=O)N[C@@H]1C(=O)N2C(C(=O)O)=C(CCNC(=O)CNC(=O)c3cc(O)c(O)c(Br)c3)CSC12)c1csc(N)n1)C(=O)O` (stereo partly specified), the MIC against Enterobacter cloacae [1] is more than 32 µg/mL; against Enterobacter cloacae [2], 8 µg/mL (≈ 10.4 µM); in the data set on Enterobacter cloacae [3], 0.06 µg/mL (≈ 0.0779 µM); in the data set with Pseudomonas aeruginosa [4] it was 0.015 µg/mL (≈ 0.0195 µM); in the data set on Escherichia coli [5], 0.015 µg/mL (≈ 0.0195 µM); against Providencia stuartii [6] it was 4 µg/mL (≈ 5.19 µM). For the same compound, the MIC against Staphylococcus aureus [7] amounted to 8 µg/mL (≈ 10.4 µM); in the data set with Citrobacter freundii [8] it was 0.015 µg/mL (≈ 0.0195 µM); in the data set on Staphylococcus aureus [9], 16 µg/mL (≈ 20.8 µM); in the data set with Pseudomonas aeruginosa [10] it was 0.008 µg/mL (≈ 0.0104 µM); against Pseudomonas aeruginosa [11], 0.008 µg/mL (≈ 0.0104 µM); against Providencia stuartii [12], 0.125 µg/mL (≈ 0.162 µM). The MIC against Escherichia coli [13] is 0.015 µg/mL (≈ 0.0195 µM); against Pseudomonas aeruginosa [14], 0.008 µg/mL (≈ 0.0104 µM); in the data set on Citrobacter freundii [15], 8 µg/mL (≈ 10.4 µM); against Pseudomonas aeruginosa [16] it was 0.5 µg/mL (≈ 0.649 µM); in the data set with Enterobacter cloacae [17] it was 0.06 µg/mL (≈ 0.0779 µM).

Turning to `CC(C)(O/N=C(/C(=O)N[C@@H]1C(=O)N2C(C(=O)O)=C(COC(=O)c3ccc(O)c(O)c3)CSC12)c1csc(N)n1)C(=O)O` (stereo partly specified), the MIC is more than 128 µg/mL in the data set with Enterobacter cloacae [1]; 4 µg/mL (≈ 6.43 µM) in the data set on Enterobacter cloacae [2]; 0.06 µg/mL (≈ 0.0965 µM) against Enterobacter cloacae [3]; 0.3 µg/mL (≈ 0.483 µM) in the data set with Pseudomonas aeruginosa [4]; 4 µg/mL (≈ 6.43 µM) in the data set on Staphylococcus aureus [18]; 0.008 µg/mL (≈ 0.0129 µM) in the data set on Escherichia coli [5]. Moreover, the MIC in the data set with Providencia stuartii [6] turned out to be 4 µg/mL (≈ 6.43 µM); against Citrobacter freundii [8], 0.03 µg/mL (≈ 0.0483 µM); in the data set with Pseudomonas aeruginosa [10], 0.008 µg/mL (≈ 0.0129 µM); in the data set with Pseudomonas aeruginosa [11], 0.008 µg/mL (≈ 0.0129 µM); against Providencia stuartii [12] it was 0.125 µg/mL (≈ 0.201 µM); in the data set on Escherichia coli [13], 0.008 µg/mL (≈ 0.0129 µM). In addition, the MIC stood at 0.008 µg/mL (≈ 0.0129 µM) against Pseudomonas aeruginosa [14]; 8 µg/mL (≈ 12.9 µM) against Citrobacter freundii [15]; 8 µg/mL (≈ 12.9 µM) with Staphylococcus aureus [19]; 0.125 µg/mL (≈ 0.201 µM) with Pseudomonas aeruginosa [16]; 0.5 µg/mL (≈ 0.804 µM) with Enterobacter cloacae [17].

`CCO/N=C(\C(=O)N[C@@H]1C(=O)N2C(C(=O)O)=C(CNC(=O)c3cn(CC)c4cc(O)c(O)cc4c3=O)CSC12)c1csc(N)n1` (stereo partly specified): the MIC turned out to be 32 µg/mL (≈ 48.7 µM) in the data set on Enterobacter cloacae [1]; 1 µg/mL (≈ 1.52 µM) with Enterobacter cloacae [2]; 0.015 µg/mL (≈ 0.0228 µM) in the data set on Enterobacter cloacae [3]; 0.06 µg/mL (≈ 0.0912 µM) in the data set on Pseudomonas aeruginosa [4]; 2 µg/mL (≈ 3.04 µM) in the data set on Staphylococcus aureus [18]; 0.008 µg/mL (≈ 0.0122 µM) against Escherichia coli [5]. Further, the MIC came to 2 µg/mL (≈ 3.04 µM) against Providencia stuartii [6]; 0.008 µg/mL (≈ 0.0122 µM) against Citrobacter freundii [8]; 0.008 µg/mL (≈ 0.0122 µM) against Pseudomonas aeruginosa [10]; 0.008 µg/mL (≈ 0.0122 µM) in the data set with Pseudomonas aeruginosa [11]; 0.06 µg/mL (≈ 0.0912 µM) in the data set with Providencia stuartii [12]; 0.008 µg/mL (≈ 0.0122 µM) with Escherichia coli [13]. Further, the MIC against Pseudomonas aeruginosa [14] turned out to be 0.015 µg/mL (≈ 0.0228 µM); in the data set with Citrobacter freundii [15] it was 0.5 µg/mL (≈ 0.76 µM); with Staphylococcus aureus [19], 1 µg/mL (≈ 1.52 µM); with Pseudomonas aeruginosa [16], 0.25 µg/mL (≈ 0.38 µM); in the data set with Enterobacter cloacae [17], 0.03 µg/mL (≈ 0.0456 µM).

For `CC(C)(O/N=C(\C(=O)N[C@@H]1C(=O)N2C(C(=O)O)=C(CNC(=O)c3cnc4cc(O)c(O)cc4n3)CSC12)c1csc(N)n1)C(=O)O` (stereo partly specified), the MIC in the data set with Enterobacter cloacae [1] worked out at 8 µg/mL (≈ 11.9 µM); against Enterobacter cloacae [2], 0.5 µg/mL (≈ 0.743 µM); against Enterobacter cloacae [3], 0.03 µg/mL (≈ 0.0446 µM); with Providencia stuartii [6], 8 µg/mL (≈ 11.9 µM); in the data set on Citrobacter freundii [8], 8 µg/mL (≈ 11.9 µM); against Pseudomonas aeruginosa [10], 0.008 µg/mL (≈ 0.0119 µM). Further, the MIC in the data set with Pseudomonas aeruginosa [11] amounted to 0.008 µg/mL (≈ 0.0119 µM); against Providencia stuartii [12], 0.25 µg/mL (≈ 0.372 µM); in the data set with Pseudomonas aeruginosa [20], 0.008 µg/mL (≈ 0.0119 µM); with Citrobacter freundii [15], 1 µg/mL (≈ 1.49 µM); in the data set on Pseudomonas aeruginosa [16] it was 0.008 µg/mL (≈ 0.0119 µM); in the data set with Enterobacter cloacae [17], 0.03 µg/mL (≈ 0.0446 µM).

Usually pKa stands for the negative logarithm of the acid dissociation constant. Low values mean a stronger acid or weaker base, high ones a weaker acid or stronger base. Turning to `CC(C)(O/N=C(\C(=O)N[C@@H]1C(=O)N2C(C(=O)O)=C(CNS(=O)(=O)c3ccc(O)c(O)c3)CSC12)c1csc(N)n1)C(=O)O` (stereo partly specified), the pKa in the data set “physchem” was 8. The MIC came out at 2 µg/mL (≈ 3.05 µM) against Enterobacter cloacae [1]; 2 µg/mL (≈ 3.05 µM) against Enterobacter cloacae [2]; 0.03 µg/mL (≈ 0.0457 µM) in the data set on Enterobacter cloacae [3]; 8 µg/mL (≈ 12.2 µM) in the data set on Providencia stuartii [6]; 0.015 µg/mL (≈ 0.0228 µM) against Citrobacter freundii [8]; 0.015 µg/mL (≈ 0.0228 µM) against Pseudomonas aeruginosa [10]. Also, the MIC in the data set on Providencia stuartii [12] turned out to be 0.5 µg/mL (≈ 0.761 µM); in the data set with Pseudomonas aeruginosa [14], 0.008 µg/mL (≈ 0.0122 µM); with Citrobacter freundii [15] it was 2 µg/mL (≈ 3.05 µM); against Pseudomonas aeruginosa [16], 0.125 µg/mL (≈ 0.19 µM); in the data set with Enterobacter cloacae [17], 0.125 µg/mL (≈ 0.19 µM); in the data set with Pseudomonas aeruginosa [21], 0.008 µg/mL (≈ 0.0122 µM).

The term half-life denotes the time needed for the level to fall by half in the phase considered. A high value points to slow loss. Turning to `CCN(CC1=C(C(=O)O)N2C(=O)[C@@H](NC(=O)/C(=N\OC(C)(C)C(=O)O)c3csc(N)n3)C2SC1)C(=O)c1cc(O)c(O)c(Cl)c1` (stereo partly specified), the pKa in “physchem” was determined as 7.4. Also, the MIC in the data set on Enterobacter cloacae [1] came out at 1 µg/mL (≈ 1.46 µM); against Enterobacter cloacae [2], 1 µg/mL (≈ 1.46 µM); in the data set on Enterobacter cloacae [3] it was 0.015 µg/mL (≈ 0.022 µM); against Providencia stuartii [6] it was 8 µg/mL (≈ 11.7 µM); against Citrobacter freundii [8], 0.008 µg/mL (≈ 0.0117 µM); against Pseudomonas aeruginosa [10], 0.008 µg/mL (≈ 0.0117 µM). Further, the MIC turned out to be 0.008 µg/mL (≈ 0.0117 µM) against Pseudomonas aeruginosa [11]; 0.25 µg/mL (≈ 0.366 µM) in the data set with Providencia stuartii [12]; 0.008 µg/mL (≈ 0.0117 µM) with Pseudomonas aeruginosa [14]; 1 µg/mL (≈ 1.46 µM) with Citrobacter freundii [15]; 0.06 µg/mL (≈ 0.0878 µM) in the data set with Pseudomonas aeruginosa [16]; 0.125 µg/mL (≈ 0.183 µM) against Enterobacter cloacae [17]. In [22], the AUC is 16.4 mg/h/L. In addition, the half-life in [23] is 52.2 min.
